Consider 21 molecules from patent US20230117034A1, “PYRAZOLOTRIAZINES” (Bayer Aktiengesellschaft, priority 2019, published 2023).

The target of experiment [1] is CDK12/CycK (Homo sapiens, UniProt Q9NYV4). Put plainly: CDK12/CycK high ATP kinase assay (TR-FRET, 2 mM ATP). In kind it is biochemical. The note with it: 2 mM ATP (high ATP); median; read-out: CDK12/CyclinK, 2 mM ATP (high ATP), IC50-[mol/l] (median). Put shortly:
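His-tagged human CDK12/CycK (~0.75 nM) pre-incubated 15 min with compound, then 60 min at 22 °C with 2 mM ATP and 1 µM biotinylated peptide (HEPES pH 7.5, 20 mM MgCl2). EDTA stop; phospho-Ser62 antibody/Eu anti-rabbit and streptavidin-XL665 TR-FRET, 665/620 nm ratio normalised to give IC50.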
A general note: In TR-FRET formats the signal depends on donor and acceptor labels being close together.

The target in experiment [2] is T1, CDK12 (nuclear staining in CAL-120 cells) (Homo sapiens, UniProt Q9NYV4).
T1 construct: endogenous in cells; host or cells: CAL-120 human breast cancer cells (DSMZ ACC 459)
As to the kind of experiment: CDK12 nuclear protein level: immunofluorescence/high content analysis (CAL-120). In kind it is cell-based. The note with it: for DC50: CAL-120 cells, 24 h, immunofluorescence, 50% reduction of nuclear CDK12 staining intensity, median, read-out: CDK12 degradation IF, DC50- [mol/l] (median); for (IC50 CDK12 high ATP) to (Degradation DC50 CDK12) ratio: ratio of IC50 CDK12 high ATP kinase assay to DC50 CDK12 degradation (IF, CAL-120). Put shortly:
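CAL-120 cells were treated with compound for 24 h at 37 °C, fixed with PFA and immunostained for CDK12. Nuclear CDK12 intensity was quantified by automated image analysis and normalized to DMSO and control. DC50 is the concentration giving 50% reduction of nuclear staining.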

CDK12/CycK, sequence (Q9NYV4 with tags, fused parts or gaps): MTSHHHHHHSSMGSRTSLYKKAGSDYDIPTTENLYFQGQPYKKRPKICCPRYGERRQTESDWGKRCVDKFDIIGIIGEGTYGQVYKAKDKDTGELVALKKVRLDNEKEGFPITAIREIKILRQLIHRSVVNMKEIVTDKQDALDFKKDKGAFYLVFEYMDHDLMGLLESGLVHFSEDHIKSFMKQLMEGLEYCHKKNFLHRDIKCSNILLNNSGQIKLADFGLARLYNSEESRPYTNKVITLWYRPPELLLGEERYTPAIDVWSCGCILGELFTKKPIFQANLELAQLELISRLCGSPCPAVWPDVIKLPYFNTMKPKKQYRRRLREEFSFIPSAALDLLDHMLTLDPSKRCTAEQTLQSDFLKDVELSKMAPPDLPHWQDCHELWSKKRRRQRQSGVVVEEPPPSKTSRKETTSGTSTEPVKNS
CDK12/CycK, sequence (O75909 1-300 partner limits assumed): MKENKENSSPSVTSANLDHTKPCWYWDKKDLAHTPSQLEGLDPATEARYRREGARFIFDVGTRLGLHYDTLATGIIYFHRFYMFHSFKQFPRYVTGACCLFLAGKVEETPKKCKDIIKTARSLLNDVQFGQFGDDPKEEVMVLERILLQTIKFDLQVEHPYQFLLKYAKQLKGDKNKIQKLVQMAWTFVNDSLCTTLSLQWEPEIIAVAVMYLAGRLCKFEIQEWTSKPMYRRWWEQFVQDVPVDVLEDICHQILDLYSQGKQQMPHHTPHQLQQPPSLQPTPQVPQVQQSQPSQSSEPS
T1 sequence (Q9NYV4 whole entry): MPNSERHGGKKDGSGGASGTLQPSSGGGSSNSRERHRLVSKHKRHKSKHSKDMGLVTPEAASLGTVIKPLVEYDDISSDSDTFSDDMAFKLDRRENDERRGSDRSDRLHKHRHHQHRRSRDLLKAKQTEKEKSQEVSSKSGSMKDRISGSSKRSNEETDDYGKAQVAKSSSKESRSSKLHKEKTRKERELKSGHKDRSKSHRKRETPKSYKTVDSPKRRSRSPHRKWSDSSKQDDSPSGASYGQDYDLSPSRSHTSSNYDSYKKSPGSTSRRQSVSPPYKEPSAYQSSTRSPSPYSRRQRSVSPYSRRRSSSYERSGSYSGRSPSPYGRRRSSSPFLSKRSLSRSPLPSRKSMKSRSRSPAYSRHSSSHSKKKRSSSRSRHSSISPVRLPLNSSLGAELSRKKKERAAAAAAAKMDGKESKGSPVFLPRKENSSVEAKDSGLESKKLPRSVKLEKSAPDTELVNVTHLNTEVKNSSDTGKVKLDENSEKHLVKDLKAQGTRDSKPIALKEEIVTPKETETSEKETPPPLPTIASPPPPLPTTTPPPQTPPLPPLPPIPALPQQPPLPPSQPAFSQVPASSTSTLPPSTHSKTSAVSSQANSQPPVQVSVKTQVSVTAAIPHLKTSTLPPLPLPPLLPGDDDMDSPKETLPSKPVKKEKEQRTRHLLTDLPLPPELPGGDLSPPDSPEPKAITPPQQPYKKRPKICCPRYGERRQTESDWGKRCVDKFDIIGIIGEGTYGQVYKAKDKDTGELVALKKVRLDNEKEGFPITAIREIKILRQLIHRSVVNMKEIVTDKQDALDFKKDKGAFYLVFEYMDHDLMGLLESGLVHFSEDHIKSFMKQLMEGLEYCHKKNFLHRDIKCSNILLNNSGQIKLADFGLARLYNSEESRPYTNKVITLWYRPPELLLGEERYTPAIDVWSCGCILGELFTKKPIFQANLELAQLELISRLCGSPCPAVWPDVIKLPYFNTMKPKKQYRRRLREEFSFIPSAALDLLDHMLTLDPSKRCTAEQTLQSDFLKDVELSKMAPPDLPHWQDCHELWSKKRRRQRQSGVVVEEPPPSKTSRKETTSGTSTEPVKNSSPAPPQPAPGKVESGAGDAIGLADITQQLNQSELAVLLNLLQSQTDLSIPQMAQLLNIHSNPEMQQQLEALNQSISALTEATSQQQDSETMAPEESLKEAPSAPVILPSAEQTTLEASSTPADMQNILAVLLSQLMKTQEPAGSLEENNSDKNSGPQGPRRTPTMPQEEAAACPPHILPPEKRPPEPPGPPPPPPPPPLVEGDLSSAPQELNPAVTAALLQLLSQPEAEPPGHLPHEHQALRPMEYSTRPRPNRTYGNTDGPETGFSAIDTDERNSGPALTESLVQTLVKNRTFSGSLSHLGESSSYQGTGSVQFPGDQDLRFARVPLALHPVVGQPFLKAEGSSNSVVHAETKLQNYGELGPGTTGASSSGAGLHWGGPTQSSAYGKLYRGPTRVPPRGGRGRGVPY
T1 sequence (O75909 whole entry partner): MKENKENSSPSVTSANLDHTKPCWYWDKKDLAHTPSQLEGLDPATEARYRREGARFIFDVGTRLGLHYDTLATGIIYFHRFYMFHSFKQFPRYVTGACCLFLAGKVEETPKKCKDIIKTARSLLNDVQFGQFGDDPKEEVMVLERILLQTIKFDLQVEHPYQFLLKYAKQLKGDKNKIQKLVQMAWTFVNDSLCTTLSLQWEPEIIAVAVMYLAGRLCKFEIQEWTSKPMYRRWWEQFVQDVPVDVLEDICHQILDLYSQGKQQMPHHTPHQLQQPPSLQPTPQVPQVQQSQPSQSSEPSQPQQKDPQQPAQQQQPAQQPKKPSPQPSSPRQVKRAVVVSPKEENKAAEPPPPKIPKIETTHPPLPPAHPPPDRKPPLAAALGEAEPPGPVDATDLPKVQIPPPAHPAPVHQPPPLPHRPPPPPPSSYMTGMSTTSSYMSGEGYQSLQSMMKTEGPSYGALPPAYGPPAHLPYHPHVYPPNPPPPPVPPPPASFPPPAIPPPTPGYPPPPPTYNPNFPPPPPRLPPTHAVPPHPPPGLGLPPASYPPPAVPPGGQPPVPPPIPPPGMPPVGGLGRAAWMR

With `Fc1ccc2[nH]c(CNc3nc(N4CCNCC4)nc4c(C5CC5)cnn34)nc2c1` [Example 190, 8-cyclopropyl-N-[(5-fluoro-1H-benzimidazol-2-yl)methyl]-2-(piperazin-1-yl)pyrazolo[1,5-a][1,3,5]triazin-4-amine], the IC50 in experiment [1] was 6170 nM. In addition, in experiment [2], the DC50 was 0.553 nM and the “(IC50 CDK12 high ATP) to (Degradation DC50 CDK12) ratio” value worked out at 11161.

For the molecule `Cc1ccc2[nH]c(CNc3nc(N4C[C@@H]5CCCN[C@@H]5C4)nc4c(Br)cnn34)nc2c1` [Example 203, 8-bromo-N-[(5-methyl-1H-benzimidazol-2-yl)methyl]-2-[(4aS, 7aS)-octahydro-6H-pyrrolo[3,4-b]pyridin-6-yl]pyrazolo[1,5-a][1,3,5]triazin-4-amine], in experiment [1], the IC50 is 8800 nM. In experiment [2], the DC50 is 0.64 nM and the “(IC50 CDK12 high ATP) to (Degradation DC50 CDK12) ratio” value is given as 13757.

Regarding `Fc1cccc2[nH]c(CNc3nc(N4C[C@@H]5CCCN[C@@H]5C4)nc4c(C5CC5)cnn34)nc12` [Example 187, 8-cyclopropyl-N-[(4-fluoro-1H-benzimidazol-2-yl)methyl]-2-[(4aS,7aS)-octahydro-6H-pyrrolo[3,4-b]pyridin-6-yl]pyrazolo[1,5-a][1,3,5]triazin-4-amine], the IC50 in experiment [1] amounted to 6500 nM. Moreover, in experiment [2], the DC50 is 0.707 nM and the “(IC50 CDK12 high ATP) to (Degradation DC50 CDK12) ratio” value stood at 9192.

As for `OC[C@@H]1CCCCN1c1nc(NCc2nc3c(F)c(F)ccc3[nH]2)n2ncc(C3CC3)c2n1` [Example 184, [(2S)-1-(8-cyclopropyl-4-{[(4,5-difluoro-1H-benzimidazol-2-yl)methyl]amino}pyrazolo[1,5-a][1,3,5]triazin-2-yl)piperidin-2-yl]methanol], the IC50 in experiment [1] stood at 13.2 nM. Further, in experiment [2], the DC50 is 1.75 nM and the “(IC50 CDK12 high ATP) to (Degradation DC50 CDK12) ratio” value was found to be 8.

Consider `COc1ccc2[nH]c(CNc3nc(N4C[C@@H](C)N[C@@H](C)C4)nc4c(Br)cnn34)nc2c1` [Example 205, 8-bromo-2-[(3R,5S)-3,5-dimethylpiperazin-1-yl]-N-[(5-methoxy-1 H-benzimidazol-2-yl)methyl]pyrazolo[1,5-a][1,3,5]triazin-4-amine], for which, in experiment [1], the IC50 stood at 7970 nM. In experiment [2], the DC50 turned out to be 0.506 nM and the “(IC50 CDK12 high ATP) to (Degradation DC50 CDK12) ratio” value is given as 15749.

On to `COc1cccc2[nH]c(CNc3nc(N4CCN(C)CC4)nc4c(C5CC5)cnn34)nc12` [Example 197, 8-cyclopropyl-N-[(4-methoxy-1H-benzimidazol-2-yl)methyl]-2-(4-methylpiperazin-1-yl)pyrazolo[1,5-a][1,3,5]triazin-4-amine], for which the IC50 in experiment [1] came to 9530 nM. In addition, in experiment [2], the DC50 was determined as 1.4 nM and the “(IC50 CDK12 high ATP) to (Degradation DC50 CDK12) ratio” value is given as 6827.

`CN1C[C@H]2C[C@@H]1CN2c1nc(NCc2nc3ccccc3[nH]2)n2ncc(Br)c2n1` [Example 218, N-[(1H-benzimidazol-2-yl)methyl]-8-bromo-2-[(1R,4R)-5-methyl-2,5-diazabicyclo[2.2.1]heptan-2-yl]pyrazolo[1,5-a][1,3,5]triazin-4-amine]: the IC50 in experiment [1] was more than 20000 nM. In experiment [2], the DC50 worked out at 10.5 nM and the “(IC50 CDK12 high ATP) to (Degradation DC50 CDK12) ratio” value is listed as more than 1900.

Turning to `C[C@@H]1CN(c2nc(NCc3nc4cc(F)ccc4[nH]3)n3ncc(C4CC4)c3n2)C[C@H](C)N1` [Example 175, 8-cyclopropyl-2-[(3R,5S)-3,5-dimethylpiperazin-1-yl]-N-[(5-fluoro-1H-benzimidazol-2-yl)methyl]pyrazolo[1,5-a][1,3,5]triazin-4-amine], the IC50 in experiment [1] was found to be 11000 nM. Moreover, in experiment [2], the DC50 turned out to be 0.322 nM and the “(IC50 CDK12 high ATP) to (Degradation DC50 CDK12) ratio” value was determined as 34272.

For `CCNc1nc(NCc2nc3ccccc3[nH]2)n2ncc(Br)c2n1` [Example 227, N4-(1H-benzimidazol-2-ylmethyl)-8-bromo-N2-ethyl-pyrazolo[1,5-a][1,3,5]triazine-2,4-diamine], the IC50 in experiment [1] turned out to be 9510 nM. In experiment [2], the DC50 turned out to be 16.8 nM and the “(IC50 CDK12 high ATP) to (Degradation DC50 CDK12) ratio” value is 565.

Consider `OCCNc1nc(NCc2nc3ccccc3[nH]2)n2ncc(Br)c2n1` [Example 228, 2-[(4-{[(1H-benzimidazol-2-yl)methyl]amino}-8-bromopyrazolo[1,5-a][1,3,5]triazin-2-yl)amino]ethan-1-ol], for which, in experiment [1], the IC50 was more than 20000 nM. Besides, in experiment [2], the DC50 turned out to be 47.1 nM and the “(IC50 CDK12 high ATP) to (Degradation DC50 CDK12) ratio” value was more than 425.

In the case of `CC(C)(O)CNc1nc(NCc2nc3ccccc3[nH]2)n2ncc(Br)c2n1` [Example 229, 1-[(4-{[(1H-benzimidazol-2-yl)methyl]amino}-8-bromopyrazolo[1,5-a][1,3,5]triazin-2-yl)amino]-2-methylpropan-2-ol], in experiment [1], the IC50 came to 5510 nM. Also, in experiment [2], the DC50 stood at 6.38 nM and the “(IC50 CDK12 high ATP) to (Degradation DC50 CDK12) ratio” value stood at 862.

`FC(F)(F)c1cnn2c(NCc3nc4ccccc4[nH]3)nc(N3CCOCC3)nc12` [Example 241, N-[(1H-benzimidazol-2-yl)methyl]-2-(morpholin-4-yl)-8-(trifluoromethyl) pyrazolo[1,5-a][1,3,5]triazin-4-amine]: the IC50 in experiment [1] turned out to be 805 nM. Also, in experiment [2], the DC50 turned out to be 4.34 nM and the “(IC50 CDK12 high ATP) to (Degradation DC50 CDK12) ratio” value is 186.

On to `CN1CC2CN(c3nc(NCc4nc5ccccc5[nH]4)n4ncc(Br)c4n3)CC2C1` (stereo not drawn) [Example 240, N-(1H-benzimidazol-2-ylmethyl)-8-bromo-2-(2-methyl-1,3,3a,4,6,6a-hexahydropyrrolo[3,4-c]pyrrol-5-yl)pyrazolo[1,5-a][1,3,5]triazin-4-amine], for which the IC50 in experiment [1] is more than 20000 nM. Further, in experiment [2], the DC50 worked out at 5.56 nM and the “(IC50 CDK12 high ATP) to (Degradation DC50 CDK12) ratio” value is listed as more than 3596.

Regarding `COc1cccc2[nH]c(CNc3nc(N4C[C@@H]5CCCN[C@@H]5C4)nc4c(C5CC5)cnn34)nc12` [Example 214, 8-cyclopropyl-N-[(4-methoxy-1H-benzimidazol-2-yl)methyl]-2-[(4aS,7aS)-octahydro-6H-pyrrolo[3,4-b]pyridin-6-yl]pyrazolo[1,5-a][1,3,5]triazin-4-amine], the IC50 in experiment [1] amounted to 8090 nM. Besides, in experiment [2], the DC50 was 3.92 nM and the “(IC50 CDK12 high ATP) to (Degradation DC50 CDK12) ratio” value is reported as 2062.

Regarding `OC1CCN(c2nc(NCc3nc4ccccc4[nH]3)n3ncc(Br)c3n2)CC1` [Example 17, 1-(4-{[(1H-benzimidazol-2-yl)methyl]amino}-8-bromopyrazolo[1,5-a][1,3,5]triazin-2-yl)piperidin-4-ol], the IC50 in experiment [1] was determined as 5720 nM. In experiment [2], the DC50 was found to be 5.98 nM and the “(IC50 CDK12 high ATP) to (Degradation DC50 CDK12) ratio” value was 957.

For the molecule `CN(C)C1CCN(c2nc(NCc3nc4ccccc4[nH]3)n3ncc(Br)c3n2)CC1` [Example 201, N-[(1H-benzimidazol-2-yl)methyl]-8-bromo-2-[4-(dimethylamino)piperidin-1-yl]pyrazolo[1,5-a][1,3,5]triazin-4-amine], the IC50 in experiment [1] is more than 20000 nM. For the same molecule, in experiment [2], the DC50 turned out to be 61.3 nM and the “(IC50 CDK12 high ATP) to (Degradation DC50 CDK12) ratio” value is more than 326.

Turning to `Brc1cnn2c(NCc3nc4ccccc4[nH]3)nc(N3CCNC4(CC4)C3)nc12` [Example 176, N-[(1H-benzimidazol-2-yl)methyl]-8-bromo-2-(4,7-diazaspiro[2.5]octan-7-yl)pyrazolo[1,5-a][1,3,5]triazin-4-amine], in experiment [1], the IC50 worked out at 2330 nM. Also, in experiment [2], the DC50 worked out at 1.53 nM and the “(IC50 CDK12 high ATP) to (Degradation DC50 CDK12) ratio” value was 1525.

`CN(CCN1CCCC1)c1nc(NCc2nc3ccccc3[nH]2)n2ncc(Br)c2n1` [Example 239, N4-(1H-benzimidazol-2-ylmethyl)-8-bromo-N2-methyl-N2-(2-pyrrolidin-1-ylethyl)pyrazolo[1,5-a][1,3,5]triazine-2,4-diamine]: the IC50 in experiment [1] was more than 20000 nM. Further, in experiment [2], the DC50 was found to be 347 nM and the “(IC50 CDK12 high ATP) to (Degradation DC50 CDK12) ratio” value is more than 58.

On to `CN1CC[C@@H]2CN(c3nc(NCc4nc5ccccc5[nH]4)n4ncc(Br)c4n3)C[C@@H]21` [Example 217, N-[(1H-benzimidazol-2-yl)methyl]-8-bromo-2-[(3aR,6aR)-1-methylhexahydropyrrolo[3,4-b]pyrrol-5 (1H)-yl]pyrazolo[1,5-a][1,3,5]triazin-4-amine], for which the IC50 in experiment [1] is more than 20000 nM. Further, in experiment [2], the DC50 turned out to be 8.64 nM and the “(IC50 CDK12 high ATP) to (Degradation DC50 CDK12) ratio” value was more than 2315.

Consider `CN1CCCC2CN(c3nc(NCc4nc5ccccc5[nH]4)n4ncc(Br)c4n3)CC21` (stereo not drawn) [Example 231, N-[(1H-benzimidazol-2-yl)methyl]-8-bromo-2-(1-methyloctahydro-6H-pyrrolo[3,4-b]pyridin-6-yl)pyrazolo[1,5-a][1,3,5]triazin-4-amine], for which the IC50 in experiment [1] is more than 20000 nM. Further, in experiment [2], the DC50 amounted to 33.9 nM and the “(IC50 CDK12 high ATP) to (Degradation DC50 CDK12) ratio” value was more than 590.

For `CC(C)c1cnn2c(NCc3nc4ccccc4[nH]3)nc(Nc3ccccc3)nc12` [Example 13, N^4-[(1H-benzimidazol-2-yl)methyl]-N^2-phenyl-8-(propan-2-yl)pyrazolo[1,5-a][1,3,5]triazine-2,4-diamine], the IC50 in experiment [1] is more than 20000 nM. Besides, in experiment [2], the DC50 was 43.8 nM and the “(IC50 CDK12 high ATP) to (Degradation DC50 CDK12) ratio” value was more than 457.
